Results on 28 molecules are retold here after ChEMBL document CHEMBL1129877, “Design, synthesis and biological evaluation of 1,3-diaminopropanes: a new class of polyamine analogs as leishmanicidal agents” (1997).

What is called inhibition in vivo is the relative decrease from the control value, in per cent. Higher therefore signals a response far below the control.

Holding throughout (format): functional
The subject of one experiment is Leishmania donovani. The experiment can be described thus: In vivo anti-leishmanial activity to Leishmania donovani infected hamster after intraperitoneal dose of 50 mg/kg X 5 on day 7th. As to conditions: ip.
A short description of experiment [1]: Tested in vivo for anti-leishmanial activity against Leishmania donovani infected hamster auratus after oral dose of 50 mg/kg X 5 on day 7th.
Experiment [2] can be described thus: Tested in vivo for anti-leishmanial activity against Leishmania donovani infected hamster intraperitoneal dose of 25 mg/kg X 5 on day 7th. As to conditions: ip.
Experiment [3] in a line: Tested in vivo for anti-leishmanial activity against Leishmania donovani infected hamster intraperitoneal dose of 100 mg/kg X 5 on day 7th. As to conditions: ip.
The nature of experiment [4]: Tested in vivo for anti-leishmanial activity against Leishmania donovani infected hamster auratus after oral dose of 25 mg/kg X 5 on day 7th.

In the experiment on Leishmania donovani, `NCCCN1CCN(c2ccccc2)CC1` gave an inhibition in vivo at 50 mg/kg of 37.2%.

Molecule `NCCCN1CCC(c2ccccc2)CC1` displayed an inhibition in vivo at 50 mg/kg with Leishmania donovani of 66%.

In the experiment on Leishmania donovani, `N=C(N)NCCCN1CCCCC1` showed an inhibition in vivo at 50 mg/kg of 42.1%.

With `CC1CCN(CCCN)CC1`, in the experiment on Leishmania donovani, the inhibition in vivo at 50 mg/kg amounted to 54.5%.

`CCN1CCCN(CCCN2CCC(C)CC2)C1=O`: in the experiment on Leishmania donovani, the inhibition in vivo at 50 mg/kg was found to be 25%.

For `COC(=O)/N=C(\NCCCN1CCN(c2ccccc2)CC1)NC(=O)OC`, the inhibition in vivo at 50 mg/kg with Leishmania donovani is 73.8%.

In the case of `NCCCN1CCOCC1`, the inhibition in vivo at 50 mg/kg with Leishmania donovani came out at 45.8%.

Molecule `CN1CCN(CCCN)CC1` displayed an inhibition in vivo at 50 mg/kg with Leishmania donovani of 66.9%.

`COC(=O)/N=C(\NCCCN1CCC(c2ccccc2)CC1)NC(=O)OC` gave an inhibition in vivo at 50 mg/kg in the experiment on Leishmania donovani of 66.5%.

In the experiment with Leishmania donovani, `CN1CCN(CCCN2CCCNC2=O)CC1` yielded an inhibition in vivo at 50 mg/kg of 52.1%.

In the experiment on Leishmania donovani, `COC(=O)/N=C(\NCCCN1CCCCC1)NC(=O)OC` returned an inhibition in vivo at 50 mg/kg of 56.2%.

As to `COC(=O)/N=C(\NCCCN1CCC(C)CC1)NC(=O)OC`, the results for the inhibition in vivo at 50 mg/kg (in experiment [1]; with Leishmania donovani) were 76.8% and 78.4%, respectively. Also, the results for the inhibition in vivo at 25 mg/kg in experiment [2] and in experiment [4] were 80.9% and 77.6%, respectively. In experiment [3], this molecule registered an inhibition in vivo at 100 mg/kg of 46.4%.

As for `N=C(N)NCCCN1CCC(c2ccccc2)CC1`, in the experiment with Leishmania donovani, testing at 50 mg/kg gave an inhibition in vivo of 57.7%.

As for `CN1CCN(CCCN=C(N)N)CC1`, the inhibition in vivo at 50 mg/kg with Leishmania donovani amounted to 45.1%.

Turning to `N#CCCNCCCN1CCN(c2ccccc2)CC1`, in the experiment with Leishmania donovani, the inhibition in vivo at 50 mg/kg was determined as 71%. In addition, the inhibition in vivo at 25 mg/kg in experiment [2] is 71.2%.

For the molecule `COC(=O)/N=C(\NCCCN1CCC(c2ccccn2)CC1)NC(=O)OC`, 50 mg/kg produced 72.8% inhibition in vivo in the experiment with Leishmania donovani. This molecule also showed an inhibition in vivo at 25 mg/kg in experiment [2] of 73.2%.

`CC1CCN(CCCNCCC#N)CC1` returned an inhibition in vivo at 50 mg/kg in the experiment on Leishmania donovani of 45%.

On to `COC(=O)/N=C(\NCCCN1CCOCC1)NC(=O)OC`, for which the inhibition in vivo at 50 mg/kg in the experiment on Leishmania donovani worked out at 80.2%.

Consider `N#CCCNCCCN1CCC(c2ccccc2)CC1`, for which, in the experiment on Leishmania donovani, 50 mg/kg produced 43.4% inhibition in vivo.

`CN1CCN(CCCNCCC#N)CC1` showed an inhibition in vivo at 50 mg/kg in the experiment on Leishmania donovani of 78.1%.

`N#CCCNCCCN1CCCCC1` gave an inhibition in vivo at 50 mg/kg with Leishmania donovani of 64.8%.

Take `NCCCN1CCCCC1`: 50 mg/kg produced 52.4% inhibition in vivo with Leishmania donovani.

Turning to `CC1CCN(CCCN2CCCNC2=O)CC1`, the inhibition in vivo at 50 mg/kg in the experiment on Leishmania donovani worked out at 60.8%.

`NCCCN1CCC(c2ccccn2)CC1` showed an inhibition in vivo at 50 mg/kg in the experiment with Leishmania donovani of 48.7%.

In the experiment with Leishmania donovani, `O=C1NCCCN1CCCN1CCCCC1` displayed an inhibition in vivo at 50 mg/kg of 43%.

`CCN1CCCN(CCCN2CCCCC2)C1=O` returned an inhibition in vivo at 50 mg/kg with Leishmania donovani of 41.2%.

Molecule `COC(=O)/N=C(\NCCCN1CCN(C)CC1)NC(=O)OC` returned an inhibition in vivo at 50 mg/kg in the experiment with Leishmania donovani of 85.5%.

`CC1CCN(CCCN=C(N)N)CC1` had an inhibition in vivo at 50 mg/kg with Leishmania donovani of 62.2%.
